Laboratory results published in ChEMBL document CHEMBL1201862, “PubChem BioAssay data set” (2004).
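Five concentrations, 48 hours, 96-well plates. GI50 marks 50% less growth.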 Calls of active or inactive are those of the source. Cut-off read from the data, not from the text of the source: active = GI50 up to about 1.1 µM and inactive = higher.

Legend:
Test in all cases: NCI-60 cell line screen, 48 h
HL-60 = test system: HL-60
NCI-H226 = test system: NCI-H226
SR = test system: SR
SK-MEL-5 = test system: SK-MEL-5
OVCAR-5 = test system: OVCAR-5
MOLT-4 = test system: MOLT-4
SNB-19 = test system: SNB-19
ACHN = test system: ACHN
HCC 2998 = test system: HCC 2998
OVCAR-4 = test system: OVCAR-4
DU-145 = test system: DU-145
LOX IMVI = test system: LOX IMVI
SK-MEL-2 = test system: SK-MEL-2
SF-539 = test system: SF-539
A549 = test system: A549
OVCAR-8 = test system: OVCAR-8
MCF7 = test system: MCF7
HT-29 = test system: HT-29
RXF 393 = test system: RXF 393
M14 = test system: M14

Measured: GI50

O=C1CCC(c2ccccc2)=NN1c1nc2ccccc2s1
inactive: HL-60 41.3 µM | NCI-H226 90.8 µM | SR 29.7 µM | SK-MEL-5 20.4 µM | OVCAR-5 > 63.5 µM | MOLT-4 28 µM | SNB-19 35.6 µM | ACHN 29.9 µM | HCC 2998 26.9 µM | OVCAR-4 36.7 µM | DU-145 22.9 µM | LOX IMVI 38.6 µM | SK-MEL-2 20.1 µM | SF-539 24.5 µM | A549 35.9 µM | OVCAR-8 34.8 µM | MCF7 27 µM | HT-29 37.4 µM | RXF 393 15.4 µM | M14 49.7 µM

CCCCCCCC(=O)O[C@H]1[C@H]2[C@@H](CC1(C)C)C(=O)[C@]13O[C@H]1C(=O)[C@]1(CO1)[C@]23C
inactive: NCI-H226 13.9 µM | SR 2.07 µM | SK-MEL-5 4.06 µM | OVCAR-5 11.1 µM | SNB-19 17.7 µM | ACHN 2 µM | HCC 2998 5.96 µM | OVCAR-4 4.46 µM | DU-145 14.8 µM | LOX IMVI 1.34 µM | SK-MEL-2 3.7 µM | SF-539 6.84 µM | A549 30.6 µM | OVCAR-8 2.48 µM | MCF7 3.25 µM | HT-29 5.19 µM | RXF 393 2.22 µM | M14 3.92 µM
active: HL-60 0.124 µM | MOLT-4 0.251 µM

CC(C)=CCC[C@@H](C)C1=C(O)C(=O)C(C)=C(N)C1=O
inactive: HL-60 3.43 µM | NCI-H226 20.8 µM | SR 16.7 µM | SK-MEL-5 20.4 µM | OVCAR-5 81.5 µM | MOLT-4 6.5 µM | SNB-19 32.5 µM | ACHN 18 µM | HCC 2998 59.6 µM | OVCAR-4 29.9 µM | DU-145 42.7 µM | LOX IMVI 15.7 µM | SK-MEL-2 29 µM | SF-539 31.6 µM | A549 25.8 µM | OVCAR-8 17.9 µM | MCF7 50.8 µM | HT-29 40.8 µM | RXF 393 32.9 µM | M14 20.5 µM

Cc1ccc([N+](=O)[O-])cc1NC1=NCCO1
inactive: HL-60 > 100 µM | NCI-H226 > 100 µM | SR 45.8 µM | SK-MEL-5 > 100 µM | OVCAR-5 > 100 µM | MOLT-4 > 100 µM | SNB-19 > 100 µM | ACHN > 100 µM | HCC 2998 > 100 µM | OVCAR-4 > 100 µM | DU-145 > 100 µM | LOX IMVI > 100 µM | SK-MEL-2 > 100 µM | SF-539 > 100 µM | A549 > 100 µM | OVCAR-8 > 100 µM | MCF7 > 100 µM | HT-29 > 100 µM | RXF 393 > 100 µM | M14 > 100 µM

COc1ccc2/c(=C/c3ccc(N(C)C)cc3)c3cc(-c4ccccc4)[n+](C)n3c2c1
active: HL-60 0.0218 µM | NCI-H226 0.265 µM | SR 0.092 µM | SK-MEL-5 0.0392 µM | OVCAR-5 0.52 µM | MOLT-4 0.18 µM | SNB-19 0.134 µM | ACHN 0.405 µM | HCC 2998 0.115 µM | OVCAR-4 0.347 µM | DU-145 0.179 µM | LOX IMVI 0.161 µM | SK-MEL-2 0.18 µM | SF-539 0.495 µM | A549 0.261 µM | OVCAR-8 0.0568 µM | MCF7 0.126 µM | HT-29 0.104 µM | RXF 393 0.59 µM | M14 0.139 µM

CC12CCC(=O)[C@@]1(C)CCCC2=O (stereo not given in full)
inactive: HL-60 > 100 µM | NCI-H226 > 100 µM | SR > 100 µM | SK-MEL-5 > 10 µM | OVCAR-5 > 100 µM | MOLT-4 > 100 µM | SNB-19 > 100 µM | ACHN > 100 µM | HCC 2998 > 100 µM | OVCAR-4 > 100 µM | DU-145 > 100 µM | LOX IMVI > 100 µM | SK-MEL-2 > 100 µM | SF-539 > 100 µM | A549 > 100 µM | OVCAR-8 > 100 µM | MCF7 > 100 µM | HT-29 > 100 µM | RXF 393 42.2 µM | M14 > 100 µM

CCOC(=O)C1=C(C)NC(=S)NC1c1cccc(O)c1 (stereo not given) [MONASTROL]
inactive: HL-60 25.7 µM | NCI-H226 55 µM | SR 31.5 µM | SK-MEL-5 36.6 µM | OVCAR-5 76.6 µM | MOLT-4 33.6 µM | SNB-19 76.4 µM | ACHN 85.3 µM | HCC 2998 40 µM | OVCAR-4 66.1 µM | DU-145 76.6 µM | LOX IMVI 72.8 µM | SK-MEL-2 32.4 µM | SF-539 44.8 µM | A549 52.1 µM | OVCAR-8 57.7 µM | MCF7 30 µM | HT-29 > 86.3 µM | RXF 393 25.5 µM | M14 23.5 µM
